Values after ≈ are worked out from the molar mass of the structure shown.
Columns and labels:
Assay type in all cases: functional
Settings in all cases: read-out: ED50 (the source's name)
[1] = system: SW-620; assay: Cytotoxicity against human SW620 cells by sulforhodamine B method
[2] = system: A549; assay: Cytotoxicity against human A549 cells by sulforhodamine B method
[3] = system: U-251; assay: Cytotoxicity against human U251 cells by sulforhodamine B method
[4] = system: SNB-19; assay: Cytotoxicity against human SNB19 cells by sulforhodamine B method
[5] = system: SK-OV-3; assay: Cytotoxicity against human SKOV3 cells by sulforhodamine B method
[6] = system: SK-MEL-2; assay: Cytotoxicity against human SK-MEL-2 cells by sulforhodamine B method
[7] = system: LOX IMVI; assay: Cytotoxicity against human LOXIMVI cells by sulforhodamine B method
[8] = system: HCT-15; assay: Cytotoxicity against human HCT15 cells by sulforhodamine B method

SMILES | EC50 [1] | EC50 [2] | EC50 [3] | EC50 [4] | EC50 [5] | EC50 [6] | EC50 [7] | EC50 [8]
C=C[C@@](C)(CC[C@H]1C(C)=CC[C@H]2C(C)(C)CCC[C@]12C)O[C@@H]1O[C@@H](C)[C@H](O)[C@@H](O)[C@H]1OC(C)=O | > 10 µg/mL | > 10 µg/mL | > 10 µg/mL | > 10 µg/mL | > 10 µg/mL | > 10 µg/mL | > 10 µg/mL | > 10 µg/mL
C=C[C@@](C)(CCC1=C(C)[C@H](OO)C[C@H]2C(C)(C)CCC[C@]12C)O[C@@H]1O[C@@H](C)[C@@H](OC(C)=O)[C@H](O)[C@H]1O | > 10 µg/mL | > 10 µg/mL | > 10 µg/mL | > 10 µg/mL | > 10 µg/mL | > 10 µg/mL | > 10 µg/mL | > 10 µg/mL
C=C[C@@](C)(CC[C@H]1C(C)=CC[C@H]2C(C)(C)CCC[C@]12C)O[C@@H]1O[C@@H](C)[C@H](OC(C)=O)[C@@H](O)[C@H]1O | > 10 µg/mL | > 10 µg/mL | > 10 µg/mL | > 10 µg/mL | > 10 µg/mL | > 10 µg/mL | > 10 µg/mL | > 10 µg/mL
C=C[C@@](C)(CC[C@H]1C(C)=CC[C@H]2C(C)(C)CCC[C@]12C)O[C@@H]1O[C@@H](C)[C@H](O)[C@@H](OC(C)=O)[C@H]1O | > 10 µg/mL | > 10 µg/mL | > 10 µg/mL | > 10 µg/mL | > 10 µg/mL | > 10 µg/mL | > 10 µg/mL | > 10 µg/mL
COc1cccc2c1C(=O)c1c(O)c3c(c(O)c1C2=O)C[C@@](O)(C(=O)CO)C[C@@H]3O[C@H]1C[C@H](N)[C@H](O)[C@H](C)O1 [DOXORUBICIN] | 0.003 µg/mL (≈ 0.00552 µM) | 0.001 µg/mL (≈ 0.00184 µM) | 0.001 µg/mL (≈ 0.00184 µM) | 0.002 µg/mL (≈ 0.00368 µM) | 0.01 µg/mL (≈ 0.0184 µM) | 0.002 µg/mL (≈ 0.00368 µM) | 0.001 µg/mL (≈ 0.00184 µM) | 0.006 µg/mL (≈ 0.011 µM)

Reference: ChEMBL document CHEMBL1150608, “Five new labdane diterpenes from Aster oharai” (2002)
